Data: the NIST ThermoML archive (doi:10.1021/acs.jced.8b00692)
Numbers after ± are expanded uncertainties.

Assay: xn = mol fraction of the nth substance listed
Details: 102 kPa, Liquid; for viscosity: Concentric cylinders viscometry; for speed of sound: Frequency=3 MHz, Single path-length method; for mass density: Vibrating tube method

CCCC1CCCCC1 [1-cyclohexylpropane] + CCCCCCCCCCCCCCCC
Details | mass density [kg/m3] | speed of sound [m/s] | viscosity [mPa·s]
293.15 K, x1 = 0.2001 | 775.57 ± 0.81 | 1349.9 ± 0.6 | 2.9 ± 0.02
293.15 K, x1 = 0.4008 | 778.35 ± 0.81 | 1341.6 ± 0.6 | 2.35 ± 0.02
293.15 K, x1 = 0.5001 | 779.98 ± 0.81 | 1336.9 ± 0.6 | 2.11 ± 0.01
293.15 K, x1 = 0.6009 | 781.97 ± 0.81 | 1331.7 ± 0.6 | 1.85 ± 0.01
293.15 K, x1 = 0.8301 | 787.65 ± 0.81 | 1318.8 ± 0.6 | 1.34 ± 0.01
293.15 K, x1 = 1 | 793.54 ± 0.81 | 1307.8 ± 0.6 | 0.996 ± 0.012
303.15 K, x1 = 0.2001 | 768.58 ± 0.81 | 1312.1 ± 0.6 | 2.34 ± 0.02
303.15 K, x1 = 0.4008 | 771.27 ± 0.81 | 1303.8 ± 0.6 | 1.94 ± 0.01
303.15 K, x1 = 0.5001 | 772.84 ± 0.81 | 1298.4 ± 0.6 | 1.74 ± 0.01
303.15 K, x1 = 0.6009 | 774.74 ± 0.81 | 1293.3 ± 0.6 | 1.55 ± 0.01
303.15 K, x1 = 0.8301 | 780.16 ± 0.81 | 1279.2 ± 0.6 | 1.14 ± 0.01
303.15 K, x1 = 1 | 785.73 ± 0.81 | 1266.2 ± 0.6 | 0.86 ± 0.012
313.15 K, x1 = 0.2001 | 761.59 ± 0.81 | 1275.2 ± 0.6 | 1.93 ± 0.01
313.15 K, x1 = 0.4008 | 764.18 ± 0.81 | 1266.6 ± 0.6 | 1.61 ± 0.01
313.15 K, x1 = 0.5001 | 765.69 ± 0.81 | 1260.8 ± 0.6 | 1.46 ± 0.01
313.15 K, x1 = 0.6009 | 767.5 ± 0.81 | 1255.6 ± 0.6 | 1.31 ± 0.01
313.15 K, x1 = 0.8301 | 772.64 ± 0.81 | 1240.3 ± 0.6 | 0.975 ± 0.012
313.15 K, x1 = 1 | 777.9 ± 0.81 | 1225.6 ± 0.6 | 0.75 ± 0.012
323.15 K, x1 = 0.2001 | 754.61 ± 0.81 | 1239 ± 0.6 | 1.61 ± 0.01
323.15 K, x1 = 0.4008 | 757.08 ± 0.81 | 1230 ± 0.6 | 1.37 ± 0.01
323.15 K, x1 = 0.5001 | 758.53 ± 0.81 | 1224 ± 0.6 | 1.25 ± 0.01
323.15 K, x1 = 0.6009 | 760.24 ± 0.81 | 1218.5 ± 0.6 | 1.13 ± 0.01
323.15 K, x1 = 0.8301 | 765.09 ± 0.81 | 1202 ± 0.6 | 0.858 ± 0.012
323.15 K, x1 = 1 | 770.04 ± 0.81 | 1185.9 ± 0.6 | 0.663 ± 0.011
333.15 K, x1 = 0.2001 | 747.61 ± 0.81 | 1203.8 ± 0.6 | 1.37 ± 0.01
333.15 K, x1 = 0.4008 | 749.96 ± 0.81 | 1194.3 ± 0.6 | 1.18 ± 0.01
333.15 K, x1 = 0.5001 | 751.33 ± 0.81 | 1188 ± 0.6 | 1.07 ± 0.01
333.15 K, x1 = 0.6009 | 752.95 ± 0.81 | 1182.1 ± 0.6 | 0.97 ± 0.012
333.15 K, x1 = 0.8301 | 757.51 ± 0.81 | 1164.5 ± 0.6 | 0.747 ± 0.012
333.15 K, x1 = 1 | 762.12 ± 0.81 | 1147.3 ± 0.6 | 0.584 ± 0.011
343.15 K, x1 = 0.2001 | 740.6 ± 0.8 | – | 1.19 ± 0.01
343.15 K, x1 = 0.4008 | 742.9 ± 0.8 | – | 1.03 ± 0.01
343.15 K, x1 = 0.5001 | 744.1 ± 0.8 | – | 0.946 ± 0.012
343.15 K, x1 = 0.6009 | 745.6 ± 0.8 | – | 0.863 ± 0.012
343.15 K, x1 = 0.8301 | 749.8 ± 0.8 | – | 0.673 ± 0.011
343.15 K, x1 = 1 | 754.2 ± 0.8 | – | 0.544 ± 0.011
353.15 K, x1 = 0.2001 | 733.6 ± 0.8 | – | 1.02 ± 0.01
353.15 K, x1 = 0.4008 | 735.7 ± 0.8 | – | 0.905 ± 0.012
353.15 K, x1 = 0.5001 | 736.9 ± 0.8 | – | 0.834 ± 0.012
353.15 K, x1 = 0.6009 | 738.3 ± 0.8 | – | 0.764 ± 0.012
353.15 K, x1 = 0.8301 | 742.2 ± 0.8 | – | 0.594 ± 0.011
353.15 K, x1 = 1 | 746.1 ± 0.8 | – | 0.477 ± 0.011
363.15 K, x1 = 0.2001 | 726.5 ± 0.8 | – | 0.918 ± 0.012
363.15 K, x1 = 0.4008 | 728.5 ± 0.8 | – | 0.805 ± 0.012
363.15 K, x1 = 0.5001 | 729.5 ± 0.8 | – | 0.746 ± 0.012
363.15 K, x1 = 0.6009 | 730.8 ± 0.8 | – | 0.685 ± 0.011
363.15 K, x1 = 0.8301 | 734.6 ± 0.8 | – | 0.503 ± 0.021
363.15 K, x1 = 1 | 738 ± 0.8 | – | 0.452 ± 0.011

CCCCCCCCCCC1CCCCC1 [decylcyclohexane] + CCCCCCCCCCCCCCCC
Details | mass density [kg/m3] | speed of sound [m/s] | viscosity [mPa·s]
293.15 K, x1 = 0.2 | 781.98 ± 0.81 | 1366.2 ± 0.7 | 3.73 ± 0.03
293.15 K, x1 = 0.4 | 790.75 ± 0.81 | 1375.8 ± 0.7 | 4.03 ± 0.02
293.15 K, x1 = 0.4999 | 795.26 ± 0.81 | 1380.7 ± 0.7 | 4.19 ± 0.02
293.15 K, x1 = 0.6008 | 799.82 ± 0.81 | 1385.6 ± 0.8 | 4.36 ± 0.03
293.15 K, x1 = 0.7237 | 805.48 ± 0.81 | 1392 ± 0.8 | 4.63 ± 0.02
293.15 K, x1 = 1 | 818.55 ± 0.81 | 1406.7 ± 0.9 | 5.32 ± 0.03
303.15 K, x1 = 0.2 | 775.08 ± 0.81 | 1329 ± 0.7 | 2.95 ± 0.02
303.15 K, x1 = 0.4 | 783.89 ± 0.81 | 1338.4 ± 0.7 | 3.16 ± 0.02
303.15 K, x1 = 0.4999 | 788.42 ± 0.81 | 1343.3 ± 0.7 | 3.29 ± 0.02
303.15 K, x1 = 0.6008 | 792.99 ± 0.81 | 1348.3 ± 0.7 | 3.41 ± 0.02
303.15 K, x1 = 0.7237 | 798.67 ± 0.81 | 1354.7 ± 0.8 | 3.6 ± 0.02
303.15 K, x1 = 1 | 811.78 ± 0.81 | 1369.4 ± 0.9 | 4.09 ± 0.02
313.15 K, x1 = 0.2 | 768.19 ± 0.81 | 1292.6 ± 0.7 | 2.39 ± 0.02
313.15 K, x1 = 0.4 | 777.04 ± 0.81 | 1301.9 ± 0.7 | 2.54 ± 0.02
313.15 K, x1 = 0.4999 | 781.59 ± 0.81 | 1306.8 ± 0.7 | 2.64 ± 0.02
313.15 K, x1 = 0.6008 | 786.18 ± 0.81 | 1311.8 ± 0.7 | 2.73 ± 0.02
313.15 K, x1 = 0.7237 | 791.88 ± 0.81 | 1318.3 ± 0.8 | 2.87 ± 0.02
313.15 K, x1 = 1 | 805.02 ± 0.81 | 1333 ± 0.9 | 3.23 ± 0.02
323.15 K, x1 = 0.2 | 761.3 ± 0.81 | 1256.8 ± 0.7 | 1.97 ± 0.01
323.15 K, x1 = 0.4 | 770.2 ± 0.81 | 1266.2 ± 0.7 | 2.09 ± 0.02
323.15 K, x1 = 0.4999 | 774.76 ± 0.81 | 1271.1 ± 0.7 | 2.18 ± 0.02
323.15 K, x1 = 0.6008 | 779.37 ± 0.81 | 1276.2 ± 0.7 | 2.24 ± 0.02
323.15 K, x1 = 0.7237 | 785.08 ± 0.81 | 1282.7 ± 0.8 | 2.34 ± 0.02
323.15 K, x1 = 1 | 798.27 ± 0.81 | 1297.5 ± 0.9 | 2.62 ± 0.02
333.15 K, x1 = 0.2 | 754.42 ± 0.81 | 1221.9 ± 0.7 | 1.65 ± 0.01
333.15 K, x1 = 0.4 | 763.35 ± 0.81 | 1231.6 ± 0.7 | 1.75 ± 0.01
333.15 K, x1 = 0.4999 | 767.92 ± 0.81 | 1236.3 ± 0.7 | 1.81 ± 0.01
333.15 K, x1 = 0.6008 | 772.55 ± 0.81 | 1241.5 ± 0.7 | 1.87 ± 0.02
333.15 K, x1 = 0.7237 | 778.28 ± 0.81 | 1248.2 ± 0.8 | 1.95 ± 0.02
333.15 K, x1 = 1 | 791.5 ± 0.81 | 1262.9 ± 0.9 | 2.16 ± 0.02
343.15 K, x1 = 0.2 | 747.5 ± 0.8 | – | 1.42 ± 0.01
343.15 K, x1 = 0.4 | 756.5 ± 0.8 | – | 1.48 ± 0.01
343.15 K, x1 = 0.4999 | 761.3 ± 0.8 | – | 1.54 ± 0.01
343.15 K, x1 = 0.6008 | 765.8 ± 0.8 | – | 1.58 ± 0.01
343.15 K, x1 = 0.7237 | 771.6 ± 0.8 | – | 1.64 ± 0.01
343.15 K, x1 = 1 | 784.8 ± 0.8 | – | 1.82 ± 0.02
353.15 K, x1 = 0.2 | 740.7 ± 0.8 | – | 1.21 ± 0.01
353.15 K, x1 = 0.4 | 749.7 ± 0.8 | – | 1.28 ± 0.01
353.15 K, x1 = 0.4999 | 754.4 ± 0.8 | – | 1.32 ± 0.01
353.15 K, x1 = 0.6008 | 759 ± 0.8 | – | 1.36 ± 0.01
353.15 K, x1 = 0.7237 | 764.8 ± 0.8 | – | 1.41 ± 0.01
353.15 K, x1 = 1 | 778 ± 0.8 | – | 1.55 ± 0.01
363.15 K, x1 = 0.2 | 733.7 ± 0.8 | – | 1.08 ± 0.01
363.15 K, x1 = 0.4 | 742.8 ± 0.8 | – | 1.1 ± 0.01
363.15 K, x1 = 0.4999 | 747.6 ± 0.8 | – | 1.17 ± 0.01
363.15 K, x1 = 0.6008 | 752.1 ± 0.8 | – | 1.18 ± 0.01
363.15 K, x1 = 0.7237 | 758 ± 0.8 | – | 1.22 ± 0.01
363.15 K, x1 = 1 | 771.2 ± 0.8 | – | 1.34 ± 0.01
373.15 K, x1 = 0.2 | 726.8 ± 0.8 | – | 0.926 ± 0.012
373.15 K, x1 = 0.4 | 735.9 ± 0.8 | – | 0.979 ± 0.012
373.15 K, x1 = 0.4999 | 740.7 ± 0.8 | – | 1.01 ± 0.01
373.15 K, x1 = 0.6008 | 745.2 ± 0.8 | – | 1.04 ± 0.01
373.15 K, x1 = 0.7237 | 751.1 ± 0.8 | – | 1.07 ± 0.01
373.15 K, x1 = 1 | 764.4 ± 0.8 | – | 1.17 ± 0.01
